# Measured values from patent US10759810B2 (AO “TATKHIMFARMPREPARATY”, priority 2016, dated 2020).
# Tests used:
# [1] = system: gram-positive microorganisms; test: Antibacterial activity (MIC), gram-positive strains; assay type: cell-based; conditions: in words, versus comparison drugs
# Method: (§1) Measurement of antibacterial activity was carried out on the strains of Staphylococcus aureus ATCC 29213 (museum strain), Staphylococcus epidermidis (clinical isolate), Micrococcus luteus (clinical isolate), Bacillus subtilis 168 (museum strain), Escherichia coli ATCC 25922 (museum strain), Salmonella typhimurium TA100 (museum strain), Pseudomonas aeruginosa ATCC 27853 (museum strain). A comparative assessment of the spectrum of antibacterial action on reference strains and clinical isolates of gram-positive microorganisms was carried out using a micromethod for determining the minimum inhibitory concentration (MIC) using serial dilutions in Mueller-Hinton broth using 96-well sterile plates.
# (§2) The first lowest concentration of the antibiotic (from a series of successive dilutions), where bacterial growth is not visually determined, is considered to be the minimum inhibitory concentration (MIC).
# (§3) For the preparation of inoculum (infectious material used for artificial contamination), intended for the study of antibacterial activity, was used a pure daily culture of bacteria grown on a dense nutrient medium (agar LB medium). […] The inoculum was used for 15 minutes after preparation; the purity of the bacterial strains was monitored before each experiment. […]
# ICR mice (CD-1) = test: General acute toxicity, fixed-dose method, intragastric administration; assay type: in vivo, mouse; conditions: for Number of animals in the group/number of dead animals / LD10 / LD16 / LD50 with confidence interval / LD84: mouse
# Method: The acute toxicity of compound I-2 was studied using the fixed-dose method in ICR mice (CD-1) (6-8 weeks, 20-25 g) of both sexes, 6 animals per group. The starting dose for testing compound I-2 was 5000 mg/kg. The intragastric (oral) administration of compound I-2 to animals (<2.5 ml/100 g) using a gastric probe was used.
# [2] = system: Salmonella typhimurium TA100 (museum strain); test: MIC, serial dilutions in Mueller-Hinton broth; assay type: cell-based; conditions: inoculum 10^7 CFU/ml; gram-negative
# Method: as §1, §2
# (§4) For the preparation of inoculum (infectious material used for artificial contamination), intended for the study of antibacterial activity, was used a pure daily culture of bacteria grown on a dense nutrient medium (agar LB medium). In a sterile isotonic solution of sodium chloride, a suspension of microorganisms was prepared, adjusting the inoculum density to 0.5 according to the McFarland standard (1.5·10^8 CFU/ml). Then, the resulting inoculum was diluted to a concentration of 10^7 CFU/ml with LB-broth. The inoculum was used for 15 minutes after preparation; the purity of the bacterial strains was monitored before each experiment.
# (§5) 100 μl of Muller-Hinton broth was added to the wells of each plate; the test base was introduced into the first well at a concentration of 128 μg/ml in a volume of 100 μl and its concentration was adjusted to 0.25 μg/ml by consecutive two-fold dilution. […] Each preparation in the experiment was titrated three times. […] In addition, the purity of nutrient media and solvents was monitored. The plates were incubated in a thermostat at […] for 24 hours.
# (§6) The growth of cultures was assessed visually, comparing the growth of microorganisms in the presence of test compounds with the growth of culture without them.
# [3] = system: Staphylococcus aureus ATCC 29213 (museum strain); test: MIC, serial dilutions in Mueller-Hinton broth; assay type: cell-based; conditions: inoculum 10^7 CFU/ml; gram-positive
# Method: as §1, §2, §4, §5, §6
# [4] = system: Escherichia coli ATCC 25922 (museum strain); test: MIC, serial dilutions in Mueller-Hinton broth; assay type: cell-based; conditions: inoculum 10^7 CFU/ml; gram-negative
# Method: as §1, §2, §4, §5, §6
# [5] = system: Staphylococcus epidermidis (clinical isolate); test: MIC, serial dilutions in Mueller-Hinton broth; assay type: cell-based; conditions: inoculum 10^7 CFU/ml; gram-positive
# Method: as §1, §2, §4, §5, §6
# [6] = system: Bacillus subtilis 168 (museum strain); test: MIC, serial dilutions in Mueller-Hinton broth; assay type: cell-based; conditions: inoculum 10^7 CFU/ml; gram-positive
# Method: as §1, §2, §4, §5, §6
# [7] = system: Micrococcus luteus (clinical isolate); test: MIC, serial dilutions in Mueller-Hinton broth; assay type: cell-based; conditions: inoculum 10^7 CFU/ml; gram-positive
# Method: as §1, §2, §4, §5, §6
# [8] = system: Pseudomonas aeruginosa ATCC 27853 (museum strain); test: MIC, serial dilutions in Mueller-Hinton broth; assay type: cell-based; conditions: inoculum 10^7 CFU/ml; gram-negative
# Method: as §1, §2, §4, §5, §6
# [9] = system: clinical freshly isolated strains of Staphylococcus aureus MRSA; test: Antibacterial activity (MIC), clinical MRSA strains overall; assay type: cell-based; conditions: in words, in almost all cases
# Method: as §1, §2, §3
# [10] = system: microorganism strains under study; test: Antibacterial activity (MIC), whole strain panel; assay type: cell-based; conditions: in words, from Table 1
# Method: as §1, §2, §3
# [11] = system: gram-negative bacterial strains; test: Antibacterial activity (MIC), gram-negative strains; assay type: cell-based; conditions: in words
# Method: as §1, §2, §3
# S. aureus MRSA 1173 = test: MIC on clinical strain; assay type: cell-based, Staphylococcus aureus; conditions: inoculum 10^7 CFU/ml
# Method: as §1, §2, §4, §5, §6
# S. aureus MRSA 1065 = test: MIC on clinical strain; assay type: cell-based, Staphylococcus aureus; conditions: inoculum 10^7 CFU/ml
# Method: as §1, §2, §4, §5, §6
# S. aureus MRSA 1131 = test: MIC on clinical strain; assay type: cell-based, Staphylococcus aureus; conditions: inoculum 10^7 CFU/ml
# Method: as §1, §2, §4, §5, §6
# S. aureus MRSA 967 = test: MIC on clinical strain; assay type: cell-based, Staphylococcus aureus; conditions: inoculum 10^7 CFU/ml
# Method: as §1, §2, §4, §5, §6
# S. aureus MRSA 981 = test: MIC on clinical strain; assay type: cell-based, Staphylococcus aureus; conditions: inoculum 10^7 CFU/ml
# Method: as §1, §2, §4, §5, §6
# S. aureus MRSA 1130 = test: MIC on clinical strain; assay type: cell-based, Staphylococcus aureus; conditions: inoculum 10^7 CFU/ml
# Method: as §1, §2, §4, §5, §6
# S. aureus MRSA 1143 = test: MIC on clinical strain; assay type: cell-based, Staphylococcus aureus; conditions: inoculum 10^7 CFU/ml
# Method: as §1, §2, §4, §5, §6
# S. aureus MRSA 1053 = test: MIC on clinical strain; assay type: cell-based, Staphylococcus aureus; conditions: inoculum 10^7 CFU/ml
# Method: as §1, §2, §4, §5, §6
# S. aureus MRSA 2020 = test: MIC on clinical strain; assay type: cell-based, Staphylococcus aureus; conditions: inoculum 10^7 CFU/ml
# Method: as §1, §2, §4, §5, §6
# S. aureus MRSA 1163 = test: MIC on clinical strain; assay type: cell-based, Staphylococcus aureus; conditions: inoculum 10^7 CFU/ml
# Method: as §1, §2, §4, §5, §6
# S. aureus MRSA 1168 = test: MIC on clinical strain; assay type: cell-based, Staphylococcus aureus; conditions: inoculum 10^7 CFU/ml
# Method: as §1, §2, §4, §5, §6
# S. aureus MRSA 983 = test: MIC on clinical strain; assay type: cell-based, Staphylococcus aureus; conditions: inoculum 10^7 CFU/ml
# Method: as §1, §2, §4, §5, §6
smiles,measurement,setting,value
"Cc1ncc(CN2CCN(c3cc4c(cc3F)c(=O)c(C(=O)O)cn4C3CC3)CC2)c(CO)c1O [Compound I-2, 1-cyclopropyl-6-fluoro-7-(4-((5-hydroxy-4-hydroxymethyl-6-methylpyridine-3-yl)methyl)piperazinyl)-4-oxo-1,4-dihydroquinolin-3-carboxylic acid]",antibacterial action with respect to gram-positive microorganisms,[1],comparable with the comparison drugs
same,changes during the autopsy of mice,"ICR mice (CD-1); end of experiment, pathomorphological dissection",No changes were observed
same,hazard class,ICR mice (CD-1); from acute toxicity in mice,4
same,behaviour after dosing,"ICR mice (CD-1); mice of both sexes, 5000 mg/kg intragastric",slight inhibition of activity
same,death of animals (mortality),"ICR mice (CD-1); mice of both sexes, 5000 mg/kg intragastric, whole experiment",not observed
same,abnormalities during the observation period,"ICR mice (CD-1); mice, 5000 mg/kg intragastric",no abnormalities were observed
same,time until animals began to take food and water,"ICR mice (CD-1); mice, 5000 mg/kg intragastric",1.5 to 2 h
same,time until behavior of animals returned to normal,"ICR mice (CD-1); mice, 5000 mg/kg intragastric",20 to 30 min
same,mean lethal dose,"ICR mice (CD-1); mice, intragastric, up to 5000 mg/kg",not detected
same,Number of animals in the group/number of dead animals,"ICR mice (CD-1); females, 5000 mg/kg intragastric",6/0
same,LD10,"ICR mice (CD-1); females, intragastric",>5000 mg/kg
same,LD16,"ICR mice (CD-1); females, intragastric",>5000 mg/kg
same,LD50 with confidence interval,"ICR mice (CD-1); females, intragastric",>5000 mg/kg
same,LD84,"ICR mice (CD-1); females, intragastric",>5000 mg/kg
same,Number of animals in the group/number of dead animals,"ICR mice (CD-1); males, 5000 mg/kg intragastric",6/0
same,LD10,"ICR mice (CD-1); males, intragastric",>5000 mg/kg
same,LD16,"ICR mice (CD-1); males, intragastric",>5000 mg/kg
same,LD50 with confidence interval,"ICR mice (CD-1); males, intragastric",>5000 mg/kg
same,LD84,"ICR mice (CD-1); males, intragastric",>5000 mg/kg
same,"MIC, S. typhimurium",[2],2 µg/mL
same,"MIC, S. aureus",[3],2 µg/mL
same,"MIC, E. coli",[4],2 µg/mL
same,"MIC, S. epidermidis",[5],2 µg/mL
same,"MIC, B. subtilis",[6],<2 µg/mL
same,"MIC, M. luteus",[7],4 µg/mL
same,"MIC, P. aerugenosa",[8],>64 µg/mL
same,MIC on clinical MRSA strains compared with ceftriaxone,[9],superior to ceftriaxone
same,antibacterial activity against the microorganism strains under study,[10],most active
same,antibacterial activity in relation to gram-negative bacterial strains,[11],low antibacterial activity
same,"The value of the MIC, S. aureus MRSA 1173",S. aureus MRSA 1173,16 µg/mL
same,"The value of the MIC, S. aureus MRSA 1065",S. aureus MRSA 1065,32 µg/mL
same,"The value of the MIC, S. aureus MRSA 1131",S. aureus MRSA 1131,16 µg/mL
same,"The value of the MIC, S. aureus MRSA 967",S. aureus MRSA 967,16 µg/mL
same,"The value of the MIC, S. aureus MRSA 981",S. aureus MRSA 981,16 µg/mL
same,"The value of the MIC, S. aureus MRSA 1130",S. aureus MRSA 1130,16 µg/mL
same,"The value of the MIC, S. aureus MRSA 1143",S. aureus MRSA 1143,32 µg/mL
same,"The value of the MIC, S. aureus MRSA 1053",S. aureus MRSA 1053,16 µg/mL
same,"The value of the MIC, S. aureus MRSA 2020",S. aureus MRSA 2020,0.25 µg/mL
same,"The value of the MIC, S. aureus MRSA 1163",S. aureus MRSA 1163,0.5 µg/mL
same,"The value of the MIC, S. aureus MRSA 1168",S. aureus MRSA 1168,0.25 µg/mL
same,"The value of the MIC, S. aureus MRSA 983",S. aureus MRSA 983,8 µg/mL
